Laboratory results reported in PMC8659060, “Neuroprotective Potential of Synthetic Mono-Carbonyl Curcumin Analogs Assessed by Molecular Docking Studies” (Molecules, 2021).
Like-named read-outs stand apart in the source and are kept apart here.

How the values were obtained:
AChE = molecular target: T1, AChE (Electrophorus electricus, UniProt O42275); experiment: biochemical; settings: for inhibition at 62.5 µg/mL / inhibition at 125 µg/mL / inhibition at 250 µg/mL / inhibition at 500 µg/mL / inhibition at 1000 µg/mL: read-out: AChE percent enzyme inhibition, Mean ± SEM
T1 construct: obtaining AChE and BChE enzymes from electric eel and equine serum, respectively; from tissue; host or cells: electric eel
Protocol: (§1) Evaluation of anticholinesterase activity of the synthesized compounds was performed according to Ellman’s method and was determined by obtaining AChE and BChE enzymes from electric eel and equine serum, respectively. DMSO was used for the dissolution of test samples (1 mg/mL), which were diluted in phosphate buffer (0.1 M) to concentrations from 1000 to 62.5 µg/mL. Phosphate buffer in 0.1 M, pH 8.0 was used for the dilution of 518 U/mg AChE and 7–16 U/mg BChE to obtain final concentrations of 0.03 U/mL and 0.01 U/mL for AChE and BChE, respectively. Substrate solutions of 0.5 mM ATchI, 0.2273 mM DTNB and 0.5 mM BTchI in distilled water were made and maintained separately in Eppendorf tubes at 8 °C in a refrigerator. The assay was started by adding 5 µL enzyme solution to a cuvette, then adding 205 µL test sample followed by 5 µL DTNB reagent. A 5 µL volume of substrate solution was added, and the solution mixture was maintained for 15 min in water bath at 30 °C. A spectrophotometer was used to measure absorbance at 412 nm at 30 °C with a reaction time of 4 min. […] The following formula was used for calculation of % enzyme inhibition.

BChE = molecular target: T2, BChE (Equus caballus, UniProt P81908); experiment: biochemical; settings: for inhibition at 62.5 µg/mL / inhibition at 125 µg/mL / inhibition at 250 µg/mL / inhibition at 500 µg/mL / inhibition at 1000 µg/mL: read-out: BChE percent enzyme inhibition, Mean ± SEM
T2 construct: obtaining AChE and BChE enzymes from electric eel and equine serum, respectively; from tissue; host or cells: equine serum
Protocol: as §1

[1] = system: scopolamine-induced amnesia in mice; experiment: Elevated plus maze (EPM), scopolamine-induced amnesia; assay type: in vivo, Balb/C mice; settings: then scopolamine 1 mg/kg i.p., mean ± SEM, n = 6
Protocol: (§2) Balb/C mice iwth a weight of (17–23 gm) were procured from the NIH (National Institute of Health), Islamabad, which were kept for breeding under favorable conditions in the animal house of the Pharmacy Department, Shaheed Benazir Bhutto University Sheringal Dir (Upper). Light/dark cycle of about 12 h each was maintained, with relative humidity of 50–55% at 22–25 °C. This work was conducted with approval from the Departmental Ethical Committee (SBBU/IEC-20-02) of the Scientific Procedure Issue-I of the University of Malakand in compliance with provision of the 2008 Animal Byelaws.
(§3) Mice were divided into thirteen groups with 6 mice in each group.
(§4) Group I. Normal control group (vehicle treated) received 10 mL/kg (i.p.) normal saline.
(§5) Group IV–XIII. Sample (curcumin analog)-treated groups. Synthesized curcumin analogs were administered in doses of 7.5 mg/kg and 15 mg/kg (p.o.), respectively.
(§6) The groups were kept for 7 days at various treatments doses.
The EPM consisted of two open arms and two closed arms with dimensions of 16 cm × 5 cm × 12 cm, and was made from two poly acrylic sheets and designed as a plus sign with a central platform with dimensions of 5 cm × 5 cm, which was elevated 25 cm from the floor on a wooden stand. Mice were placed in the open arm in such a position that their direction was facing away from the central platform; then, the transfer latency time (TLT) was noted when the mice moved to the closed arm with its four legs from the open arm and then returned to their home cage. […] The following formula was used for calculation of inflexion ratio (IR). IR=L0−L1/L0 where L1 = initial transfer latency (s) and L0 = retention transfer latency (s).

[2] = system: scopolamine-induced memory impairment in mice; experiment: Novel object recognition test (NORT), scopolamine-induced memory impairment; assay type: in vivo, Balb/C mice; settings: for % DI in exploring the novel object versus scopolamine-treated group (in words): long-term memory, donepezil 2 mg/kg; for % DI in exploring the novel object versus scopolamine-treated group (in words) / Exploration time for the novel object in the test phase (in words): h compounds 7.5 and 15 mg/kg; for % DI versus scopolamine-treated group (in words): 7.5 and 15 mg/kg p.o.; for Exploration time for the novel object in the test phase (in words): DZP 2 mg/kg
Protocol: as §2, §3, §4, §5, §6
The synthesized curcumin analogs were tested for possible memory enhancement potential by using novel object recognition test apparatus, which was designed using plexi glass with dimension of 40 cm × 40 cm × 30 cm. The mice, after acclimatization period, were allowed to move for 2–3 min one day before the test for habituation. In the two corners of the NORT apparatus, two identical objects were placed on the test day in the sample phase (T1), and the object exploration time was recorded. The objects were regarded as being explored when the mice touched the objects or directed their nose toward the object at a distance of less than 2 cm, […], the test phase (T2) was started, in which one of the familiar objects was replaced with a novel (new) object. Mice again freely explored the objects in similar manner to that in T1, and the exploration time for the novel (new) object and the familiar (F) object were noted separately. The DI (discrimination index) was measured using the following formula: DI=N−F/N+F

[3] = system: T3, AChE in the hippocampus region of mouse brain; assay type: in vivo; settings: pretreatment, then scopolamine, n = 6
T3 construct: from tissue; host or cells: mouse brain hippocampus (supernatant of homogenate)
Protocol: as §6
(§7) The mice were sacrificed immediately after the behavioral study by cervical dislocation to provide quick and painless death to each animal before decapitation. Brain of each animal was excised in phosphate buffer saline (chilled) and incorporated into biochemical biomarker analysis.
(§8) Cholinesterase (AChE and BChE) levels were determined in the excised brain hippocampus using Ellman’s method with slight modification. Supernatant (0.4 mL), 0.1 M/L, pH 8 phosphate buffer (2.6 mL), and 100 µL of DTNB (5,5′-dithiobis-2-nitrobenzoic acid) and were added into cuvette and mixed. Spectrophotometer at 412 nm was run and absorbance was measured several times, then […] acetyl thiocholine iodide/butyrylthiocholine chloride was mixed into the reaction as substrate at an interval of 2 min, and variation in absorbance was noted and the changes in absorbance per min were recorded. The following formula was used for calculation of cholinesterase level: R = 5.74 × 10^−4 × A/CO where ‘R’ is the moles (rate) of substrate hydrolyzed/min/mg of protein, (A) is the change in absorbance/min, and ‘CO’ is concentration (20 mg/mL) of protein.

[4] = system: T4, BChE in the hippocampus region of mouse brain; assay type: in vivo; settings: pretreatment, then scopolamine, n = 6
T4 construct: from tissue; host or cells: mouse brain hippocampus (supernatant of homogenate)
Protocol: as §6, §7, §8

[5] = Ellman's method, 1000 to 62.5 μg/mL, n = 3, read-out: AChEI (IC50) (converted)
[6] = Ellman's method, 1000 to 62.5 μg/mL, n = 3, read-out: BChEI (IC50) (converted)

T1 sequence (O42275 24-633): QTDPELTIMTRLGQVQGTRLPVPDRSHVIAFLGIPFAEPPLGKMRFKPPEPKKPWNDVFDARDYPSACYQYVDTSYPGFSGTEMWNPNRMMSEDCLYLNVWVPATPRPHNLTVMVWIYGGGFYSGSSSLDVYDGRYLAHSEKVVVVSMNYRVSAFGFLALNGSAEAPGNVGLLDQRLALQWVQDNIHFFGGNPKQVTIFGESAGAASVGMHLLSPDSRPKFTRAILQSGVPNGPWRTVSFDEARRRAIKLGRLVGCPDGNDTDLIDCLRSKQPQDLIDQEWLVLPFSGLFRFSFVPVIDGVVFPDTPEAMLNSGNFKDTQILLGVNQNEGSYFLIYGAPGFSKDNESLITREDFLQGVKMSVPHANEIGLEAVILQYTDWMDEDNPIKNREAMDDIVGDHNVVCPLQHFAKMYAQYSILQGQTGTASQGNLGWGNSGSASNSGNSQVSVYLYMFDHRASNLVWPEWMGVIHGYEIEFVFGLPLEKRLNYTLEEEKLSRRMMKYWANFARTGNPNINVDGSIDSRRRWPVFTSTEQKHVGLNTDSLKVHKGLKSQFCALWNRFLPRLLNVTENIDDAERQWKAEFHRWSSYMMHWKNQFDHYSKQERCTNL
T2 sequence (P81908 whole entry): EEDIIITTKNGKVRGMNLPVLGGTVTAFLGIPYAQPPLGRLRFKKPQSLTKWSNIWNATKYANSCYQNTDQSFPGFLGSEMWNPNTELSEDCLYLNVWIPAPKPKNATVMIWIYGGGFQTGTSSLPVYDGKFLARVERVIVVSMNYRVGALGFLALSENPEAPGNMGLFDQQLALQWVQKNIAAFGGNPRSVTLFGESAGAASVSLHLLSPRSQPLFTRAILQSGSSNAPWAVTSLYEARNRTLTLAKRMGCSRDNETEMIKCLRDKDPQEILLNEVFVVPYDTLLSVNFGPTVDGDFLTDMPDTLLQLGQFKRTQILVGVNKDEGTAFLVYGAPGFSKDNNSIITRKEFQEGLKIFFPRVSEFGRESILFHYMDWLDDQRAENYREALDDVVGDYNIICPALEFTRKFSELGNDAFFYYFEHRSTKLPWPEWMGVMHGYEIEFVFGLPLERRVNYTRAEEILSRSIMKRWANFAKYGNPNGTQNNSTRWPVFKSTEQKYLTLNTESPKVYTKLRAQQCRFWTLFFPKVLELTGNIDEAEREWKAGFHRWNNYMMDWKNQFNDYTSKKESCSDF

Row | SMILES | inhibition at 62.5 µg/mL (AChE; 62.5 µg/mL) | inhibition at 125 µg/mL (AChE; 125 µg/mL) | inhibition at 250 µg/mL (AChE; 250 µg/mL) | inhibition at 500 µg/mL (AChE; 500 µg/mL) | inhibition at 1000 µg/mL (AChE; 1000 µg/mL) | IC50 (AChE; [5]) | inhibition at 62.5 µg/mL (BChE; 62.5 µg/mL) | inhibition at 125 µg/mL (BChE; 125 µg/mL) | inhibition at 250 µg/mL (BChE; 250 µg/mL) | inhibition at 500 µg/mL (BChE; 500 µg/mL) | inhibition at 1000 µg/mL (BChE; 1000 µg/mL) | IC50 (BChE; [6]) | Retention (transfer latency time, TLT) ([1]; 7.5 mg/kg p.o. for 7 days) | Retention (transfer latency time, TLT) ([1]; 15 mg/kg p.o. for 7 days) | % DI in exploring the novel object versus scopolamine-treated group (in words) [2] | % DI versus scopolamine-treated group (in words) ([2]; short-term memory) | Reversal of scopolamine-increased hippocampus AChE level (in words) [3] | Reversal of scopolamine-increased hippocampus BChE level (in words) [4] | Exploration time for the novel object in the test phase (in words) ([2]; short-term memory) | other results
1 | CN(C)c1ccc(/C=C/C(=O)/C=C/c2ccc(N(C)C)cc2)cc1 [h4, (1E,4E)-1,5-bis(4-(Dimethylamino)phenyl)penta-1,4-dien-3-one] | 31.41 ± 0.13% | 39.45 ± 0.04% | 46.32 ± 0.15% | 58.16 ± 0.11% | 63.51 ± 0.17% | 920 µM | 27.16 ± 0.11% | 35.33 ± 0.19% | 42.62 ± 0.12% | 49.51 ± 0.16% | 56.32 ± 0.18% | 1600 µM | 35.71 ± 1.13 s | 30.42 ± 1.24 s | no promising results | comparable values | no prominent | no promising results | – | –
2 | O=C(/C=C/c1ccc(Cl)cc1)/C=C/c1ccc(Cl)cc1 [h3, (1E,4E)-1,5-bis(4-Chlorophenyl)penta-1,4-dien-3-one] | 53.53 ± 0.12% | 62.44 ± 0.16% | 69.51 ± 0.13% | 77.25 ± 0.11% | 83.31 ± 0.13% | 96.9 µM | 49.25 ± 0.02% | 58.33 ± 0.13% | 62.41 ± 0.19% | 69.52 ± 0.12% | 78.72 ± 0.16% | 222 µM | 25.26 ± 2.51 s | 21.27 ± 2.92 s | significant increase | – | reversed | significantly reversed | significantly more time exploring the novel object | –
3 | Cc1ccc(/C=C/C(=O)/C=C/c2ccc(C)cc2)cc1 [h1, (1E,4E)-1,5-Di-p-tolylpenta-1,4-dien-3-one] | 45.63 ± 0.13% | 54.34 ± 0.17% | 58.12 ± 0.16% | 68.07 ± 0.18% | 79.67 ± 0.21% | 399 µM | 37.16 ± 0.12% | 46.25 ± 0.13% | 51.91 ± 0.14% | 56.42 ± 0.16% | 62.16 ± 0.04% | 927 µM | 33.13 ± 2.16 s | 26.18 ± 2.32 s | significant increase | comparable values | no prominent | no promising results | – | –
4 | COc1ccc2c3c1O[C@H]1C[C@@H](O)C=C[C@@]31CCN(C)C2 [Galanthamine, reference compound] | – | – | – | – | – | – | – | – | – | – | – | – | – | – | – | – | – | – | – | inhibition at 62.5 µg/mL (BChE): 61.35 ± 0.18%; inhibition at 125 µg/mL (BChE): 66.2 ± 0.15%; inhibition at 250 µg/mL (BChE): 73.42 ± 0.11%; inhibition at 500 µg/mL (BChE): 78.62 ± 0.17%
5 | O=C(/C=C/c1ccc([N+](=O)[O-])cc1)/C=C/c1ccc([N+](=O)[O-])cc1 [h5, (1E,4E)-1,5-bis(4-Nitrophenyl)penta-1,4-dien-3-one] | – | – | – | – | – | – | – | – | – | – | – | – | 34.71 ± 1.37 s | 31.51 ± 1.54 s | no promising results | no promising results | no prominent | no promising results | – | IC50 (AChE): 1950 µM; inhibition at 62.5 µg/mL (AChE): 26.45 ± 0.18%; inhibition at 125 µg/mL (AChE): 35.51 ± 0.06%; inhibition at 250 µg/mL (AChE): 41.27 ± 0.04%; inhibition at 500 µg/mL (AChE): 47.33 ± 0.16%; inhibition at 1000 µg/mL (AChE): 58.41 ± 0.13%; IC50 (BChE): 3050 µM; inhibition at 62.5 µg/mL (BChE): 16.2 ± 0.83%; inhibition at 125 µg/mL (BChE): 20.3 ± 0.31%; inhibition at 250 µg/mL (BChE): 32.73 ± 0.01%; inhibition at 500 µg/mL (BChE): 43.51 ± 0.13%; inhibition at 1000 µg/mL (BChE): 51.82 ± 0.16%
6 | COc1ccc(/C=C/C(=O)/C=C/c2ccc(OC)cc2)cc1 [h2, (1E,4E)-1,5-bis(4-Methoxyphenyl)penta-1,4-dien-3-one] | 46.88 ± 0.15% | 53.57 ± 0.17% | 61.21 ± 0.18% | 73.79 ± 0.12% | 76.23 ± 0.15% | 317 µM | 41.82 ± 0.18% | 48.61 ± 0.15% | 57.22 ± 0.01% | 64.38 ± 0.06% | 69.77 ± 0.03% | 503 µM | 31.51 ± 2.73 s | 25.32 ± 2.42 s | significant increase | – | reversed | significantly reversed | significantly more time exploring the novel object | –
7 | COc1cc2c(cc1OC)C(=O)C(CC1CCN(Cc3ccccc3)CC1)C2 (stereo not drawn) [Donepezil, reference compound] | – | – | – | – | – | – | – | – | – | – | – | – | – | – | significant increase | – | – | – | significantly higher exploration times | Retention (transfer latency time, TLT) ([1]; 2 mg/kg p.o. for 7 days): 25.57 ± 1.93 s; Retention (transfer latency time, TLT) ([1]; 2 mg/kg p.o. for 7 days, listed as donepezil): 25.57 ± 1.93 s; Exploration time for the novel object ([2]; short-term memory, test phase, 2 mg/kg p.o. + scopolamine 1 mg/kg i.p.): 21.59 ± 2.44 s
